In ChEMBL document CHEMBL4406831, “Discovery of fused heterocyclic carboxamide derivatives as novel α7-nAChR agonists: Synthesis, preliminary SAR and biological evaluation” (Eur J Med Chem, 2019):
Active and inactive are the calls of the source. No cut-off for these calls is given here.

Legend:
Assay type in all cases: cell-based
[1] = target: T1, Neuronal acetylcholine receptor subunit alpha-7 (Homo sapiens, UniProt P36544); assay: Agonist activity at human alpha7 nAChR expressed in Xenopus laevis oocytes assessed as induction of channel current at 10 uM at -90 mV holding potential by two-electrode voltage clamp method relative to acetylcholine
[2] = target: T1, Neuronal acetylcholine receptor subunit alpha-7; assay: Agonist activity at human alpha7 nAChR expressed in Xenopus laevis oocytes assessed as peak current amplitude at -90 mV holding potential by two-electrode voltage clamp method relative to acetylcholine
[3] = target: T1, Neuronal acetylcholine receptor subunit alpha-7; assay: Agonist activity at human alpha7 nAChR expressed in Xenopus laevis oocytes assessed as induction of channel current at -90 mV holding potential by two-electrode voltage clamp method
[4] = target: T1, Neuronal acetylcholine receptor subunit alpha-7; assay: Agonist activity at human alpha7 nAChR expressed in Xenopus laevis oocytes assessed as induction of channel current at 100 uM at -90 mV holding potential by two-electrode voltage clamp method relative to acetylcholine
[5] = target: T2, Neuronal acetylcholine receptor; alpha3/beta4 (Homo sapiens, UniProt P30926+P32297); assay: Agonist activity at alpha3beta4 nAChR (unknown origin) expressed in Xenopus laevis oocytes assessed as induction of current at 100 uM at -90 mV holding potential by two-electrode voltage clamp method
[6] = target: T2, Neuronal acetylcholine receptor; alpha3/beta4; assay: Antagonist activity at alpha3beta4 nAChR (unknown origin) expressed in Xenopus laevis oocytes assessed as inhibition of acetylcholine-induced channel current at -90 mV holding potential by two-electrode voltage clamp method
Homo sapiens [7] = organism: Homo sapiens; assay: Selectivity index, ratio of EC50 for alpha4beta2 nAChR (unknown origin) expressed in Xenopus laevis oocytes to EC50 for human alpha7 nAChR expressed in Xenopus laevis oocytes
[8] = target: T3, 5-hydroxytryptamine receptor 3A (Homo sapiens) (UniProt P46098); assay: Antagonist activity at human 5-HT3A receptor expressed in Xenopus laevis oocytes at 10 uM at -90 mV holding potential in presence of serotonin by two-electrode voltage clamp method
T3 sequence (whole entry): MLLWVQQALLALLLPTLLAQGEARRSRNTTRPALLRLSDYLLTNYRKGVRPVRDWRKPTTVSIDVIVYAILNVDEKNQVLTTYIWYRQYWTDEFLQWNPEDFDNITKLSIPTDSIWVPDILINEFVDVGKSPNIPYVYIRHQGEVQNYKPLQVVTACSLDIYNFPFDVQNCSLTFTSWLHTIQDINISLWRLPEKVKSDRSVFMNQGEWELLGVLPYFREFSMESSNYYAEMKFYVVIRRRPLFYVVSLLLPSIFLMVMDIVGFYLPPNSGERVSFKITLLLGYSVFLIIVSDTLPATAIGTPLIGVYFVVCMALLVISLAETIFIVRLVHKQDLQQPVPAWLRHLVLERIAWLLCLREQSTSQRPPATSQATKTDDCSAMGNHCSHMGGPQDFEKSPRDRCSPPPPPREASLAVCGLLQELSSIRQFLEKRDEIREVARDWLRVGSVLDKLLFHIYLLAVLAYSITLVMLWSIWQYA

[9] = target: T3, 5-hydroxytryptamine receptor 3A (Homo sapiens); assay: (§1) Antagonist activity at human 5-HT3A receptor expressed in Xenopus laevis oocytes at -90 mV holding potential in presence of serotonin by two-electrode voltage clamp method
[10] = target: T4, 5-hydroxytryptamine receptor 3A (Homo sapiens, UniProt P46098); assay: as §1
T4 sequence (P46098 whole entry): T3 sequence (whole entry)

[11] = target: T1, Neuronal acetylcholine receptor subunit alpha-7; assay: Agonist activity at human alpha7 nAChR expressed in Xenopus laevis oocytes preincubated with 1 uM alpha7 type-2 PAM PNU-120596 at -90 mV holding potential by two-electrode voltage clamp method
[12] = target: T1, Neuronal acetylcholine receptor subunit alpha-7; assay: Agonist activity at human alpha7 nAChR expressed in Xenopus laevis oocytes assessed as channel current at 10 uM at -90 mV holding potential in presence of 10 nM alpha7 nAChR antagonist, MLA by two-electrode voltage clamp method
[13] = target: T2, Neuronal acetylcholine receptor; alpha3/beta4; assay: Agonist activity at alpha3beta4 nAChR (unknown origin) expressed in Xenopus laevis oocytes assessed as channel current at 10 uM at -90 mV holding potential by two-electrode voltage clamp method
[14] = target: T5, Neuronal acetylcholine receptor; alpha4/beta2 (Homo sapiens, UniProt P17787+P43681); assay: Agonist activity at alpha4beta2 nAChR (unknown origin) expressed in Xenopus laevis oocytes assessed as induction of current at 10 uM at -90 mV holding potential by two-electrode voltage clamp method
[15] = target: T3, 5-hydroxytryptamine receptor 3A (Homo sapiens); assay: Agonist activity at human 5-HT3A receptor expressed in Xenopus laevis oocytes at 10 uM at -90 mV holding potential by two-electrode voltage clamp method
[16] = target: T5, Neuronal acetylcholine receptor; alpha4/beta2; assay: Agonist activity at alpha4beta2 nAChR (unknown origin) expressed in Xenopus laevis oocytes at -90 mV holding potential by two-electrode voltage clamp method
Homo sapiens [17] = organism: Homo sapiens; assay: Selectivity index, ratio of IC50 for alpha3beta4 nAChR (unknown origin) expressed in Xenopus laevis oocytes to EC50 for human alpha7 nAChR expressed in Xenopus laevis oocytes
[18] = target: T1, Neuronal acetylcholine receptor subunit alpha-7; assay: Induction of desensitization at human alpha7 nAChR expressed in Xenopus laevis oocytes assessed as inhibition of acetylcholine induced current treated with compound prior to 100 uM acetylcholine challenge at -90 mV holding potential by two-electrode voltage clamp method
[19] = target: T1, Neuronal acetylcholine receptor subunit alpha-7; assay: Agonist activity at human alpha7 nAChR expressed in Xenopus laevis oocytes assessed as increase in channel current at 10 uM at -90 mV holding potential in presence of 10 nM alpha7 nAChR antagonist, MLA measured after 10 mins by two-electrode voltage clamp method

T1 sequence (P36544 whole entry): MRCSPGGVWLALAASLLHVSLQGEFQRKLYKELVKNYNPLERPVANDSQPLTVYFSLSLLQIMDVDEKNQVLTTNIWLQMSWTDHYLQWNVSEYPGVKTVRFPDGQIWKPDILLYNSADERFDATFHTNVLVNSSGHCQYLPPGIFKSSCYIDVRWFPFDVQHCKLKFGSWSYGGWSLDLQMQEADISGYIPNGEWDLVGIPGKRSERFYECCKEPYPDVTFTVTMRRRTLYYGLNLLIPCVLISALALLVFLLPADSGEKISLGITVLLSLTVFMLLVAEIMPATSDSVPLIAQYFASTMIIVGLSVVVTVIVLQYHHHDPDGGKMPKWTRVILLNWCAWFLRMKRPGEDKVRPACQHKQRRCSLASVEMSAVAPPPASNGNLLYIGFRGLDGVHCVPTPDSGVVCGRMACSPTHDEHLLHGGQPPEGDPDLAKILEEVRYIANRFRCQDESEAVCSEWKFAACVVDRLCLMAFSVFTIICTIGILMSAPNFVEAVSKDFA
T2 sequence (P30926 whole entry): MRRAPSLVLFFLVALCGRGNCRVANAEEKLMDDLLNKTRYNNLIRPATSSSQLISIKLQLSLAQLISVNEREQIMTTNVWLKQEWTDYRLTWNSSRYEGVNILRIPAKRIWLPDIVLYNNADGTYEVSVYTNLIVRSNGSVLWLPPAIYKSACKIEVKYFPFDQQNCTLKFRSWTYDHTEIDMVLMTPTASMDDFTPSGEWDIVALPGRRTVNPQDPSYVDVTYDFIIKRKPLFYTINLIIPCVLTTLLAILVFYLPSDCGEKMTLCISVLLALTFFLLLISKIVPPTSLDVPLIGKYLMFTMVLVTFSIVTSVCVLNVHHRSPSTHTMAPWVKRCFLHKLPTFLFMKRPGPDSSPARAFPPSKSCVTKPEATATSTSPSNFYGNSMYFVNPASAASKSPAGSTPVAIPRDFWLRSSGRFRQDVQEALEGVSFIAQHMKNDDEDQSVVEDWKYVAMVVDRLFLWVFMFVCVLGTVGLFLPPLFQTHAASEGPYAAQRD
T2 sequence (P32297 whole entry): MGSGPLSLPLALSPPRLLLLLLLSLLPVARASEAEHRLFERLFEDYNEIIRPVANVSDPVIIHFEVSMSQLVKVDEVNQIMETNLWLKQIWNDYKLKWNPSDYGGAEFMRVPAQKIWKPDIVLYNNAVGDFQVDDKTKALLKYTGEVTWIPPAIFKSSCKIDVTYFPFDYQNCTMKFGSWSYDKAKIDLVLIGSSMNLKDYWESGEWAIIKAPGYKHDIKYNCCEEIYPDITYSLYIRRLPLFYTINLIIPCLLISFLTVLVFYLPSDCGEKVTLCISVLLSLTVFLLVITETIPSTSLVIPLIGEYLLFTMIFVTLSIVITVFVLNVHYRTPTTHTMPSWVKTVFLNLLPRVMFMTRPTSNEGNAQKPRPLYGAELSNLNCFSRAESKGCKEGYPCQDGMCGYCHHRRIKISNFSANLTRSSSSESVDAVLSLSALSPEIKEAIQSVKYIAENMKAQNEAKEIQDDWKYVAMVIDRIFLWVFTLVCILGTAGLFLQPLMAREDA
T5 sequence (P17787 whole entry): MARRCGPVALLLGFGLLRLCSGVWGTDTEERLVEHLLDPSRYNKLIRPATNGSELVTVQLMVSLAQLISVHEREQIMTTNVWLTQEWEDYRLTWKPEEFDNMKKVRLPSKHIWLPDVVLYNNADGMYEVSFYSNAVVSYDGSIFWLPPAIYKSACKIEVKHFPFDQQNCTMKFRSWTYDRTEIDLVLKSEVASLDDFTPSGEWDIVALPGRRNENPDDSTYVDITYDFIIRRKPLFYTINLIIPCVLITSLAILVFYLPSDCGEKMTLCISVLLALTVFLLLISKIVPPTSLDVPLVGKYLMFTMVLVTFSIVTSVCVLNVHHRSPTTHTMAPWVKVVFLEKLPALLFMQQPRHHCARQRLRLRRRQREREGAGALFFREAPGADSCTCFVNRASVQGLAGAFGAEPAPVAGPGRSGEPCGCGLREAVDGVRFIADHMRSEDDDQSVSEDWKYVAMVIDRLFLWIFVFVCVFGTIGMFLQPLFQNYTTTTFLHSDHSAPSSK
T5 sequence (P43681 whole entry): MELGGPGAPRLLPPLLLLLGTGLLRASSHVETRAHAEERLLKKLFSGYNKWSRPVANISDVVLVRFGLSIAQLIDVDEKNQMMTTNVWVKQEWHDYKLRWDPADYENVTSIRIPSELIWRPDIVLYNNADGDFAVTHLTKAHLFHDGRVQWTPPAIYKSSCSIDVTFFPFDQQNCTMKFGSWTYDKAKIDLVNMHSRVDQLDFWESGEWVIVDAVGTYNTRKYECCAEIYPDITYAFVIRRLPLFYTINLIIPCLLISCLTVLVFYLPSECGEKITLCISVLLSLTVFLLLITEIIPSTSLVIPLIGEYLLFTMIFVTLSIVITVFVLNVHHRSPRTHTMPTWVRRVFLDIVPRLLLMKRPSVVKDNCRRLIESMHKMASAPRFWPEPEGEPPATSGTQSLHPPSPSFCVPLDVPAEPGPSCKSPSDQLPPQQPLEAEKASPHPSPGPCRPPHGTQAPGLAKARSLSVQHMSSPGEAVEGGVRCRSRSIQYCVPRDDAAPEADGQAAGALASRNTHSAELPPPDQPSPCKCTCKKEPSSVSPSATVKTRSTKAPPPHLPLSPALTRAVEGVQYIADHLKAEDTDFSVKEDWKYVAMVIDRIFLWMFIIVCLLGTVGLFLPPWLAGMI

Row | SMILES | Activity [1] | Activity [4] | further results
1 | O=C(N[C@H]1CN2CCC1CC2)c1cc2ccc3cc(C4CC4)ccc3n2c1 | < 60% |  | 
2 | C#CCOc1ccc2c(ccc3cc(C(=O)N[C@H]4CN5CCC4CC5)cn32)c1 | 60 to 120% |  | Emax [2]: 34.5%; EC50 [3]: 7630 nM
3 | O=C(N[C@H]1CN2CCC1CC2)c1cc2ccc3cc(N4CCCCC4)ccc3n2c1 | < 60% |  | 
4 | O=C(N[C@H]1CN2CCC1CC2)c1cc2cccc(Cl)c2s1 [ENCENICLINE] |  |  | Emax [2]: 27.6%; EC50 [3]: 250 nM
5 | O=C(N[C@H]1CN2CCC1CC2)c1cc2ccc3cc(-c4ccncc4)ccc3n2c1 |  | < 60% | 
6 | O=C(N[C@H]1CN2CCC1CC2)c1cc2ccc3cc(Br)ccc3n2c1 | < 60% |  | 
7 | O=C(N[C@H]1CN2CCC1CC2)c1cc2n(c1)CCCC2 |  | < 60% | 
8 | O=C(N[C@H]1CN2CCC1CC2)c1cc2ccc3cc(OCc4ccc(F)cc4)ccc3n2c1 |  | < 60% | 
9 | O=C(N[C@H]1CN2CCC1CC2)c1cc2ccc3cc(-c4ccsc4)ccc3n2c1 |  | < 60% | 
10 | O=C(N[C@H]1CN2CCC1CC2)c1cc2ccc3cc(N4CCCC4)ccc3n2c1 | < 60% |  | 
11 | CCCOc1ccc2c(ccc3cc(C(=O)N[C@H]4CN5CCC4CC5)cn32)c1 | < 60% | < 60% | 
12 | O=C(N[C@H]1CN2CCC1CC2)c1cc2ccc3cc(OCc4ccccc4)ccc3n2c1 |  | < 60% | 
13 | O=C(N[C@H]1CN2CCC1CC2)c1cc2ccc3cc(-c4cccnc4)ccc3n2c1 | < 60% | 60 to 120% | 
14 | CCC(CC)Oc1ccc2c(ccc3cc(C(=O)N[C@H]4CN5CCC4CC5)cn32)c1 |  | inactive | 
15 | CC(C)COc1ccc2c(ccc3cc(C(=O)N[C@H]4CN5CCC4CC5)cn32)c1 | inactive |  | 
16 | O=C(N[C@H]1CN2CCC1CC2)c1cc2ccc3cc(OCc4cccnc4)ccc3n2c1 |  | 60 to 120% | 
17 | O=C(N[C@H]1CN2CCC1CC2)c1cc2ccc3cc(OC4CCC4)ccc3n2c1 |  | < 60% | 
18 | O=C(N[C@H]1CN2CCC1CC2)c1cc2ccc3cc(-c4ccccc4)ccc3n2c1 | < 60% | 60 to 120% | 

Row | SMILES | Activity [1] | Activity [4] | further results
19 | O=C(N[C@H]1CN2CCC1CC2)c1cc2ccc3cc(Cl)ccc3n2c1 | < 60% |  | 
20 | CC(=O)OCC[N+](C)(C)C |  |  | Activity [5]: Active
21 | Cc1cc(-c2ccc3c(ccc4cc(C(=O)N[C@H]5CN6CCC5CC6)cn43)c2)ccn1 |  | < 60% | 
22 | Cc1ccccc1-c1ccc2c(ccc3cc(C(=O)N[C@H]4CN5CCC4CC5)cn32)c1 | 60 to 120% | > 120% | Emax [2]: 23.1%; EC50 [3]: 3200 nM
23 | O=C(N[C@H]1CN2CCC1CC2)c1cc2ccc3ccccc3n2c1 | 60 to 120% |  | IC50 [6]: 10100 nM; Ratio EC50 (Homo sapiens [7]): 3; inhibition [8]: Active; inhibition [9]: Dose-dependent effect; IC50 [10]: 710 nM; Activity [11]: Dose-dependent effect; EC50 [11]: 120 nM; Activity [12]: inactive; Activity [13]: inactive; Activity [14]: Active; Emax [2]: 72.4%; Activity [15]: inactive; EC50 [16]: 6140 nM; Ratio IC50/EC50 (Homo sapiens [17]): 5; IC50 [18]: 21.2 nM; inhibition [18]: Dose-dependent effect; EC50 [3]: 1880 nM; Activity [19]: Active
24 | C=CCOc1ccc2c(ccc3cc(C(=O)N[C@H]4CN5CCC4CC5)cn32)c1 |  | inactive | 
25 | O=C(N[C@H]1CN2CCC1CC2)c1cc2ccc3cc(-c4ccc(F)cc4)ccc3n2c1 |  | inactive | 
26 | CC(C)Oc1ccc2c(ccc3cc(C(=O)N[C@H]4CN5CCC4CC5)cn32)c1 |  | inactive | 
27 | COc1ccc2c(ccc3cc(C(=O)N[C@H]4CN5CCC4CC5)cn32)c1 | < 60% |  | 
28 | CCCC(C)Oc1ccc2c(ccc3cc(C(=O)N[C@H]4CN5CCC4CC5)cn32)c1 (stereo partly specified) |  | inactive | 
29 | O=C(N[C@H]1CN2CCC1CC2)c1cc2ccc3cc(O)ccc3n2c1 |  | > 120% | Emax [2]: 47.3%; EC50 [3]: 2000 nM
30 | Cc1ccc2c(ccc3cc(C(=O)N[C@H]4CN5CCC4CC5)cn32)c1 | > 120% | > 120% | Emax [2]: 29.2%; EC50 [3]: 1270 nM
31 | CC(C)(C)c1ccc(-c2ccc3c(ccc4cc(C(=O)N[C@H]5CN6CCC5CC6)cn43)c2)cc1 | 60 to 120% | 60 to 120% | 
32 | O=C(N[C@H]1CN2CCC1CC2)c1cc2ccc3cc(OC(F)F)ccc3n2c1 | < 60% | 60 to 120% | 
33 | O=C(N[C@H]1CN2CCC1CC2)c1cc2n(c1)CCC2 |  | < 60% | 
34 | O=C(N[C@H]1CN2CCC1CC2)c1cc2ccc3cc(F)ccc3n2c1 | 60 to 120% |  | Emax [2]: 58.6%; EC50 [3]: 8270 nM
35 | O=C(N[C@H]1CN2CCC1CC2)c1cc2ccc3cc(C(F)(F)F)ccc3n2c1 | < 60% |  | 
